We go through two compounds from patent US20240287054A1, “COMPOUNDS THAT BIND NON-CANONICAL G-QUADRUPLEX STRUCTURES AND METHODS OF MAKING AND USING THE SAME” (The U.S.A., as Represented by the Secretary, Department of …, priority 2021, published 2024).

The target in one assay is HIV HP-G4. Nature of the assay: FIA binding test with HIV HP-G4 ((3+1) hybrid structure). As to the method: In this study, FIA was used for validating the bindings between certain bivalent and MYCN G4 oligos. To measure the binding affinity, a solution of each compound was prepared in triplicate in a 96 well-plate (Costar, black side clear bottom), resulting in a final concentration of 100 nM (5% final DMSO in the working solution). Unlabeled MYCN G4 DNA was folded based on the above-mentioned annealing method, then added into the well plate resulting in different concentrations by a seral dilution. The plate was incubated at room temperature for 30 min, followed by centrifuging at 500 rpm for 2 minutes. The fluorescence intensity was then quantitatively recorded by a Synergy Mx microplate reader (BioTek) at Ex 340 nm/Em 500 nm. The fluorescence intensities were then normalized, and the binding affinity was calculated by fitting the curve using one-site total model in GraphPad Prism 8.3.1 software.
In addition to the DMS-footprinting study, the bivalent binding mode of compound B33 toward MYCN hairpin-G4 was also investigated by comparing HP-G4s with different folding types. Four reported HP-G4s with parallel structure (BCL2), (3+1) hybrid structure (HIV and PIM1-form1), and (2+2) chair-type structure (PIM1-form2) were examined by FIA binding test using compound B33 (FIGS. 41A, 41B, 42A, 42B, 43A, 43B, 44A, and 44B). […]

In assay [1] the test system is ~19,000 different G4 sequences, G4 and non-G4 controls. As to the kind of experiment: High-density DNA oligo microarray (~19,000 G4 sequences) selectivity profiling. The class given is binding. The following applies: 500 nM compound. The text has this:
To further characterize the binding selectivity of compound B33, high-density and large-scale DNA microarrays that contained ˜19,000 different G4 sequences were fabricated and used. In this microarray, 340 reported G4s (G-rich sequences) as well as 280 non-G4s (C-rich sequences) were designed as positive and negative controls. Additionally, over 17,000 canonical G4 oligos with short loops (1˜7 nt) were also designed and synthesized by varying the loop sequences to meet the diversity of G4 structure. After folding the surface-grafted DNA oligos in high concentration of KCl buffer, TO and compound B33 solutions (500 nM) were incubated with the microarray, respectively. Then the slides were thoroughly washed, dried, and imaged by a fluorescent scanner using green channel. […] By quantifying the fluorescence intensity of each spot, the bindings of TO and compound B33 were further investigated. The kernel density estimate (KDE) plot and violin plot represented the distribution of the binding signals throughout the whole microarray. […] Compound B33 spectrum spanned a much wider range than that of TO. In the violin plot (FIG. 37C), the mean SNR value of TO group was 12, much higher than that of the compound B33 group. […] Furthermore, the selectivity of the two compounds were quantitatively profiled by using Gini coefficient. Gini coefficient, initially used as an economic concept, has been applied in profiling the selectivity/promiscuity of kinase inhibitors as well as RNA binders. A higher Gini value represents a better selectivity of a compound (Gini coefficient>0.75 is considered an excellent selectivity). The Gini coefficient based on the SNRs in the microarray.

For the next assay, the system named is NBEB cells. As to the kind of experiment: Incucyte live cell imaging of cell confluence. The class given is cell-based. The conditions noted are these: 4-day measurement after single treatment, 0-45 μM. As to the method:
Cell lines and cell culture. The neuroblastoma cell line NBEB (Single Copy MYCN) cells were used to evaluate the efficacy of the MYCN/MYCNOs G-quadruplex binding molecules. NBEB came from stocks in Pediatric Oncology Branch, National Cancer Institute, National Institutes of Health, Bethesda, MD and have been […]. Cells were cultured in RPMI-1640, supplemented with 10% FBS (Atlanta Biologicals, Atlanta), 2 mM glutamine (Life Technologies, New York), and antibiotics (penicillin 100 μg/mL, streptomycin 100 μg/mL; Life Technologies, New York) at 37° C. in a 5% CO2 incubator.
To examine the effects of G4-binding compounds on NBEB cells, live-cell imaging was performed using an Incucyte interface (described below). […] To examine the time-dependent decrease in MYCNOs expression, cells were treated with 22.5 μM and 45 μM MY-8 and analyzed at various times (0, 4, 24, 48, 72 and 96 h). To validate cell viability, a Trypan Blue exclusion test was performed following treatment at 48 h and 96 h post treatment and the proportion of live versus dead cells was calculated using a hemocytometer.
Incucyte live cell imaging system. […] Incucyte measured cell confluence from pre-defined processing definitions for NBEB NB cells. […]

The structures appear in SMILES notation.

As for `COc1ccc(-c2noc(-c3ccc(NCCCNc4c5ccc(Cl)cc5nc5ccc(OC)cc45)nn3)n2)cc1` [B33, N^1-(6-chloro-2-methoxyacridin-9-yl)-N^3-(6-(3-(4-methoxyphenyl)-1,2,4-oxadiazol-5-yl)pyridazin-3-yl)propane-1,3-diamine], the equilibrium dissociation constant (Kd) on HIV HP-G4 is 151 ± 26 nM. The “binding to the 620 G4 and non-G4 controls” value in assay [1] (340 G4s and 280 non-G4s) is “some binding to G4s while there was no binding observed in non-G4 group”. The same compound displayed a Gini coefficient in assay [1] (based on SNRs in the microarray) of 0.628.
For `COc1ccc(-c2noc(-c3ccc(NCCCN4CCCCCC4)nn3)n2)cc1` [MY-8, N-(3-(azepan-1-yl)propyl)-6-(3-(4-methoxyphenyl)-1,2,4-oxadiazol-5-yl)pyridazin-3-amine], the “NBEB cell growth (cell confluence)” value in the assay on NBEB cells is recorded as “significant inhibition of NBEB cell growth”.
